Data published in ChEMBL document CHEMBL5370619, “Targeting the Tyrosine Kinase 2 (TYK2) Pseudokinase Domain: Discovery of the Selective TYK2 Inhibitor ABBV-712” (J Med Chem, 2023).
Converted amounts (≈) assume the structure as drawn.

Experiments:
[1] = Half life in rat at 1 mg/kg, iv or 1 mg/kg,po; type: ADME, organism-based; settings: in vivo
[2] = Unbound clearance in rat blood at 1 mg/kg, iv or 1 mg/kg,po; type: ADME, organism-based; settings: in vivo
[3] = Volume of distribution at steady state in rat at 1 mg/kg, iv or 1 mg/kg,po; type: ADME, organism-based; settings: in vivo, read-out: Vdss
CYP3A4 [4] = target: T1, CYP3A4 (Homo sapiens, UniProt P08684); assay: Induction of CYP3A4 in human hepatocytes assessed as maximum activation in mRNA level at 10 uM incubated for 24 hrs by RT-qPCR analysis relative to control; type: ADME, cell-based, Hepatocyte; settings: read-out: max activation
T1 sequence (P08684 whole entry): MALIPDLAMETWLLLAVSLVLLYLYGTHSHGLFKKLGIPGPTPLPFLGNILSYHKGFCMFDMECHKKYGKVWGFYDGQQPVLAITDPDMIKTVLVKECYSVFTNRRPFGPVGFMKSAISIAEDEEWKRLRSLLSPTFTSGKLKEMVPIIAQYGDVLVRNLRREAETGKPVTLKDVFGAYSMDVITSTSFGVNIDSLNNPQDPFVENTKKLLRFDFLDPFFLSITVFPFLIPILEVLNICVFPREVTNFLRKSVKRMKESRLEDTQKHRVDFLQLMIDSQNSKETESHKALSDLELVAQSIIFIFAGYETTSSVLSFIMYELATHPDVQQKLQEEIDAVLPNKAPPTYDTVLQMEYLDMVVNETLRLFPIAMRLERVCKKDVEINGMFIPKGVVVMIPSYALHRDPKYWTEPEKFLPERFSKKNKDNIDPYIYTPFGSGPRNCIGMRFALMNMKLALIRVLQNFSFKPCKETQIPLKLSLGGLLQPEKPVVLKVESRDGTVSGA

[5] = target: T2, Non-receptor tyrosine-protein kinase TYK2 (Homo sapiens, UniProt P29597); assay: Inhibition of TYK2 in human T-blast cells assessed as IL-12 induced STAT4 phosphorylation at Tyr694 residue preincubated for 30 mins followed by IL-12 stimulation and measured after 20 mins by AlphaScreen assay; type: cell-based, T-blast cell
T2 sequence (P29597 whole entry): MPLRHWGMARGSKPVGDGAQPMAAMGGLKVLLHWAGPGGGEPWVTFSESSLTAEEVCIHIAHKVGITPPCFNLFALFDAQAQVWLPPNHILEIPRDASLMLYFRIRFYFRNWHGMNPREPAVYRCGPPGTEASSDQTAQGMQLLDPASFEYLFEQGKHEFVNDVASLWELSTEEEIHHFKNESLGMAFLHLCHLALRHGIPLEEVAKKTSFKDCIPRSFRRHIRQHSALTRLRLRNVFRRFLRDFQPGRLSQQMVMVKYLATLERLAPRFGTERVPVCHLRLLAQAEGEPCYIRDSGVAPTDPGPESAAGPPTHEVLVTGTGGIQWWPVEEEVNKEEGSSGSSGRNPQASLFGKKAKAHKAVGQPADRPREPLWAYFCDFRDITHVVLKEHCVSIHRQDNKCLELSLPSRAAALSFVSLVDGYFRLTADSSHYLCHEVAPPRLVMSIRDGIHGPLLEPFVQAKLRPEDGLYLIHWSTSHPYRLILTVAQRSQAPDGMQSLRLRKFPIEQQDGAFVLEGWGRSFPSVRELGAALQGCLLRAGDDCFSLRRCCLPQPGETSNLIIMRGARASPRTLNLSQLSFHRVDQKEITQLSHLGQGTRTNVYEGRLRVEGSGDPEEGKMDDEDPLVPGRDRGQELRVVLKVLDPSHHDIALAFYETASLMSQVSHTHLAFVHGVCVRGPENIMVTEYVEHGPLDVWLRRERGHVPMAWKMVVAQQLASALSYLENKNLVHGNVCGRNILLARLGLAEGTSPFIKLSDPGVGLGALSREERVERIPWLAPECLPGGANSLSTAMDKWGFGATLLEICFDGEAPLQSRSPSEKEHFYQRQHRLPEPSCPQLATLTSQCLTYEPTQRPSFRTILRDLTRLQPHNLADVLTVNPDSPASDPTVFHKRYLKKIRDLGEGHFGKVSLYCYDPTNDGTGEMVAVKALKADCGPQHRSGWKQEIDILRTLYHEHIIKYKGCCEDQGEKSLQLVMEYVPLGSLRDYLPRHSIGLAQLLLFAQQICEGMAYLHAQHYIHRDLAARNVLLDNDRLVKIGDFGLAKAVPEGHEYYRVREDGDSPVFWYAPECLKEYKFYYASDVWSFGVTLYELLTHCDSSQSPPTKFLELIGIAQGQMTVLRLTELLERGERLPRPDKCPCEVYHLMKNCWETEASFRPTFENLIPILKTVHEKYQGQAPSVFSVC

[6] = target: Tyrosine-protein kinase JAK2 (Homo sapiens, UniProt O60674); assay: Inhibition of JAK2 in human UT7 cells assessed as reduction in erythropoietin induced STAT5 phosphorylation preincubated for 30 mins followed by erythropoietin stimulation and measured after 20 mins by AlphaScreen assay; type: cell-based
Tyrosine-protein kinase JAK2, sequence (O60674 whole entry): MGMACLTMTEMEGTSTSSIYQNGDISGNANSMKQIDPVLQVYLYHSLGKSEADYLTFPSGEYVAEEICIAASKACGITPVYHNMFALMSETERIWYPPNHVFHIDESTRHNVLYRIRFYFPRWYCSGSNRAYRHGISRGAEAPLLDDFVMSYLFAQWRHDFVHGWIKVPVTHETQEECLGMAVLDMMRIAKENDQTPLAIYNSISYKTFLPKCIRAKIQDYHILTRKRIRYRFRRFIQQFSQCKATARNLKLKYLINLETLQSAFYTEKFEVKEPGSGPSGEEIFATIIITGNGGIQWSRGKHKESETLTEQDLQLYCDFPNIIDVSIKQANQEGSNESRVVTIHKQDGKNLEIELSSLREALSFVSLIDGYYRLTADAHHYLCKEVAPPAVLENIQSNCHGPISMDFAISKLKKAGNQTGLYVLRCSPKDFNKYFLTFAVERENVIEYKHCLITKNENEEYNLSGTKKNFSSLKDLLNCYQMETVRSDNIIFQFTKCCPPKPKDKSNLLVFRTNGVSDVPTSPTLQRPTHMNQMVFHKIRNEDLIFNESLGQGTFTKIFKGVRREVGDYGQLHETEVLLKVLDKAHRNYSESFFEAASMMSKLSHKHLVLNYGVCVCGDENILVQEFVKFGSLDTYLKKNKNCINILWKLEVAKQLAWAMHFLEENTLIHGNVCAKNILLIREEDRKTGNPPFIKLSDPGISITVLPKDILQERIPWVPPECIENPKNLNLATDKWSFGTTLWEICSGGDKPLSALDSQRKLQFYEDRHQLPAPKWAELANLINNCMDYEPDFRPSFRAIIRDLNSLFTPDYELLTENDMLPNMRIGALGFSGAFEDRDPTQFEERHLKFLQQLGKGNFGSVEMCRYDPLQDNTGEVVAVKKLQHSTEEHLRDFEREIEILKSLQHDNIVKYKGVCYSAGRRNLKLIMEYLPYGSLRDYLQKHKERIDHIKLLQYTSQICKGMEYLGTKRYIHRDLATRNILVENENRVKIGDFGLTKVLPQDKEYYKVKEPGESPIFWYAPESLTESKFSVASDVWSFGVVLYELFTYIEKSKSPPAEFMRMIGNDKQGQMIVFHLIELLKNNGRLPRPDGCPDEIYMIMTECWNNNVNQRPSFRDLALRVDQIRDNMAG

[7] = target: T3, Tyrosine-protein kinase JAK1 (Homo sapiens, UniProt P23458); assay: Inhibition of JAK1 in human TF-1 cells assessed as reduction in IL-6 induced STAT3 phosphorylation at Tyr705 residue preincubated for 30 mins followed by IL-6 stimulation and measured after 30 mins by AlphaScreen assay; type: cell-based
T3 sequence (P23458 whole entry): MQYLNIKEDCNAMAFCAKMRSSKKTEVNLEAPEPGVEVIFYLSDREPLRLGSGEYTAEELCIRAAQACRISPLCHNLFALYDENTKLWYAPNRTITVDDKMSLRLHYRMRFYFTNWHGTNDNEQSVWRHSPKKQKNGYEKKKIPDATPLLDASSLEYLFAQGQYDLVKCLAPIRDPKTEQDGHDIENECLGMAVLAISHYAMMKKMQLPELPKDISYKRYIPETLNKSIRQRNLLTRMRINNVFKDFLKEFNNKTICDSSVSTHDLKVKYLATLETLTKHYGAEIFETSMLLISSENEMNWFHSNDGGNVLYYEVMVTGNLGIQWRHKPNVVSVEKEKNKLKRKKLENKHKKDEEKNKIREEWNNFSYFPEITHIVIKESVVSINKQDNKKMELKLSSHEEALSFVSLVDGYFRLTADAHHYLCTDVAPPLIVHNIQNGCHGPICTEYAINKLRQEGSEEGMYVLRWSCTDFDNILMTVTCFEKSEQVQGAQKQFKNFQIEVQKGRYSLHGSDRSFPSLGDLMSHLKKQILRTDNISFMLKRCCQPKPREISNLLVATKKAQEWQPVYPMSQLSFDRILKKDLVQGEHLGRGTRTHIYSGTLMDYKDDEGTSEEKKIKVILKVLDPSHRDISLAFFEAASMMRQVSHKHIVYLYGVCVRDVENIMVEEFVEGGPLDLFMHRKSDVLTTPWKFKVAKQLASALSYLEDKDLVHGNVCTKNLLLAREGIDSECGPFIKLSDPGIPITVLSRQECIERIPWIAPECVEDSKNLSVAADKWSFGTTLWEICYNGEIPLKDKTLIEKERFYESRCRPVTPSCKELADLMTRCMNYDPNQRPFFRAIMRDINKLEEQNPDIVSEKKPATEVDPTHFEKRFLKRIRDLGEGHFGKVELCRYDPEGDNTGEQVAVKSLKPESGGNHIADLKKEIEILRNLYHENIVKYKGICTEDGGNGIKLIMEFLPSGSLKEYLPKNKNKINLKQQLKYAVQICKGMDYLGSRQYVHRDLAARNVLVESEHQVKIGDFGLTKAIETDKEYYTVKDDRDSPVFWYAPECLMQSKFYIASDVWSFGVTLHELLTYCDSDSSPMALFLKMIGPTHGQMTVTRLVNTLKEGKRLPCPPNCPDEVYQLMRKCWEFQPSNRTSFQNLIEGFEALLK

[8] = Thermodynamic solubility in PBS at pH 7.4; type: physicochemical; settings: read-out: Therm_solubility
CYP3A4 [9] = target: T1, CYP3A4; assay: Time dependent inhibition of CYP3A4 in human liver microsomes using midazolam as substrate assessed as 1'-OH midazolam metabolite formation at 50 uM preincubated for 30 mins in presence of NADPH followed by substrate addition and measured after 15 mins by HPLC-MS/MS analysis relative to control; type: ADME, Microsome; settings: probe midazolam, time 45 min, read-out: TDI
[10] = Oral bioavailability in rat at 1 mg/kg; type: ADME, organism-based; settings: in vivo
CYP3A4 [11] = target: T1, CYP3A4; assay: Induction of CYP3A4 in human hepatocytes assessed as fold increase in mRNA level at 10 uM incubated for 24 hrs by RT-qPCR analysis relative to control; type: ADME, cell-based, Hepatocyte; settings: read-out: FC
[12] = target: T4, Tyrosine-protein kinase JAK3 (Homo sapiens, UniProt P52333); assay: Inhibition of JAK3 in human T-blast cells assessed as reduction in IL-2 induced STAT5 phosphorylation preincubated for 30 mins followed by IL-2 stimulation and measured after 20 mins by AlphaScreen assay; type: cell-based, T-blast cell
T4 sequence (P52333 whole entry): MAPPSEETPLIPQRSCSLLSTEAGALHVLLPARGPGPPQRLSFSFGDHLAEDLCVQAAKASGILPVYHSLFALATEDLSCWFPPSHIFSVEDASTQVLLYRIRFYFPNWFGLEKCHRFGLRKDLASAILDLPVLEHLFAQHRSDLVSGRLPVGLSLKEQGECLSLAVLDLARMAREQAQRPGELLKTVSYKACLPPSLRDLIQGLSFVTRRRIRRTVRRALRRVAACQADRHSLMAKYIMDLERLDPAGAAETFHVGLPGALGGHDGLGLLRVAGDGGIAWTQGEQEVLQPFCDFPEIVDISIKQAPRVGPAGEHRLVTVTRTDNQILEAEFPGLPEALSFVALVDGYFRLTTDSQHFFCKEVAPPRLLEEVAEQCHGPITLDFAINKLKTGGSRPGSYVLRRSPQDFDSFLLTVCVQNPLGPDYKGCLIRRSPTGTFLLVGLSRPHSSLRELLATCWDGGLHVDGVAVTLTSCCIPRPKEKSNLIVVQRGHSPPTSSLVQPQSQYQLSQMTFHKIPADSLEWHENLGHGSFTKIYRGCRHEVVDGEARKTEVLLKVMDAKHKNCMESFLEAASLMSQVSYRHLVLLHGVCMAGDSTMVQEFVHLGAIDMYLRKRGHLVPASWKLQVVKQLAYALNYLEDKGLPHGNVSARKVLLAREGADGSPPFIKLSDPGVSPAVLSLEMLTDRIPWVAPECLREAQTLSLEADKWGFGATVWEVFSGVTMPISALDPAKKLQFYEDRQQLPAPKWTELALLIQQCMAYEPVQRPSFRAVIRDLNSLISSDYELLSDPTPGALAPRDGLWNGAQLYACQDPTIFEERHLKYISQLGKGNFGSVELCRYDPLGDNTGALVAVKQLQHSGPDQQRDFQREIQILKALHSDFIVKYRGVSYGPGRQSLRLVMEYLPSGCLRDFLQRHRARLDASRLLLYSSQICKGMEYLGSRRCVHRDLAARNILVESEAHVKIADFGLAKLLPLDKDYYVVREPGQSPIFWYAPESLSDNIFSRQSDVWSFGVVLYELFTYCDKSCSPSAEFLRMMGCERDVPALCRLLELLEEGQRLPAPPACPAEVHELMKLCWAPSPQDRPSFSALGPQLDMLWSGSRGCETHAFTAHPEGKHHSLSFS

[13] = Metabolic stability in human hepatocytes assessed as intrinsic clearance for unbound fraction of drug; type: ADME, cell-based, Hepatocyte
[14] = target: T2, Non-receptor tyrosine-protein kinase TYK2; assay: Inhibition of recombinant human N-terminal His-tagged TYK2 JH2 domain (577 to 870 residues) expressed in Sf9 cells using N-(2-(2-(2-((3-(5-acetamido-3-(3-(N,N-dimethylsulfamoyl)phenyl)-1H-pyrrolo[2,3-c]pyridin-1-yl)propyl)amino)-2-oxoethoxy)ethoxy)ethyl)-2',7'-difluoro-3',6'-dihydroxy-3-oxo-3H-spiro[isobenzofuran-1,9'-xanthene]-5-carboxamide trifluoroacetate as substrate incubated for 60 mins by TR-FRET assay
[15] = target: T2, Non-receptor tyrosine-protein kinase TYK2; assay: Inhibition of TYK2 JH1 domain (unknown origin) by TR-FRET assay
[16] = Selectivity ratio of IC50 for inhibition of TYK2 JH1 domain (unknown origin) to IC50 for inhibition of recombinant human N-terminal His-tagged TYK2 JH2 domain (577 to 870 residues) expressed in Sf9 cells
[17] = target: T3, Tyrosine-protein kinase JAK1; assay: Inhibition of JAK1 JH1 domain (unknown origin) by TR-FRET assay
[18] = Selectivity ratio of IC50 for inhibition of JAK1 JH1 domain (unknown origin) to IC50 for inhibition of recombinant human N-terminal His-tagged TYK2 JH2 domain (577 to 870 residues) expressed in Sf9 cells
[19] = Metabolic stability in dog hepatocytes assessed as intrinsic clearance for unbound fraction of drug; type: ADME, cell-based, Canis lupus familiaris, Hepatocyte
[20] = Unbound clearance in dog blood at 0.5 mg/kg, iv; type: ADME, organism-based, Canis lupus familiaris; settings: in vivo
[21] = Metabolic stability in monkey hepatocytes assessed as intrinsic clearance for unbound fraction of drug; type: ADME, cell-based, Macaca mulatta, Hepatocyte; settings: rhesus monkey
[22] = AUC (0 to infinity) in dog at 0.5 mg/kg,po; type: ADME, organism-based, Canis lupus familiaris; design: dose 0.5 mg/kg, route po; settings: in vivo
[23] = Unbound clearance in cynomolgus monkey blood at 0.5 mg/kg, iv; type: ADME, organism-based, Macaca fascicularis; settings: in vivo
[24] = Half life in cynomolgus monkey at 0.5 mg/kg, iv; type: ADME, organism-based, Macaca fascicularis; settings: in vivo
[25] = Half life in dog at 0.5 mg/kg, iv; type: ADME, organism-based, Canis lupus familiaris; settings: in vivo
[26] = Oral bioavailability in dog at 0.5 mg/kg; type: ADME, organism-based, Canis lupus familiaris; settings: in vivo

Structure (SMILES)	Emax at 24 h, 10 µM (CYP3A4 [4])	EC50 [5]	EC50 [7]	solubility thermodynamic [8]	inhibition at 0.25 h, 50 µM (CYP3A4 [9])	fold induction at 24 h, 10 µM (CYP3A4 [11])	CL free [13]	IC50 [14]	other results
CO[C@@]1(c2cc(OCC[C@@H](C)O)cc(-c3cn(C)c4cnc(NC(C)=O)cc34)n2)CCOC1	6%	77 nM	> 20000 nM	105 µM (≈ 47.7 µg/mL)	8%	2.6	–	–	half-life [1]: 1.1 h; CL free [2]: 567 mL/min/kg; Vd [3]: 19 L/kg; EC50 [6]: > 20000 nM; bioavailability [10]: 26%; EC50 [12]: > 20000 nM
COc1cc(-c2cn(C3COC3)c3cnc(NC(C)=O)cc23)nc([C@]2(OC)CCOC2)c1	49%	–	–	–	43%	13	12.5 mL/min/kg	–	–
COCCOc1cc(-c2cn(C)c3cnc(NC(C)=O)cc23)nc([C@]2(OC)CCOC2)c1	42%	30 nM	–	–	6%	4	110 mL/min/kg	–	–
CN(C)S(=O)(=O)c1cccc(-c2c[nH]c3cnc(NC(=O)C4CC4)cc23)c1	–	540 nM	36300 nM	< 0.8 µM	–	–	765 mL/min/kg	480 nM	–
CO[C@@]1(c2cc(OC(F)F)cc(-c3cn(C)c4cnc(NC(C)=O)cc34)n2)CCOC1	64%	–	–	–	53%	6	102 mL/min/kg	–	–
CO[C@]1(c2cccc(-c3cn(C)c4cnc(NC(C)=O)cc34)n2)CCOC1	–	1500 nM	–	29 µM (≈ 10.6 µg/mL)	–	–	80 mL/min/kg	60 nM	–
CC(=O)Nc1cc2c(-c3cccc(S(=O)(=O)N(C)C)c3)c[nH]c2cn1	–	120 nM	19700 nM	1.2 µM (≈ 0.43 µg/mL)	–	–	113 mL/min/kg	30 nM	IC50 [15]: 6000 nM; EC50 [6]: > 19000 nM; Ratio IC50 [16]: > 200; IC50 [17]: 40000 nM; Ratio IC50 [18]: > 200; EC50 [12]: > 19000 nM
CCS(=O)(=O)c1cccc(-c2cn(C)c3cnc(NC(C)=O)cc23)n1	–	93 nM	17700 nM	–	–	–	85 mL/min/kg	9 nM	–
CO[C@@]1(c2cc(O[C@@H](C)CCO)cc(-c3cn(C)c4cnc(NC(C)=O)cc34)n2)CCOC1	3%	–	> 20000 nM	190 µM (≈ 86.4 µg/mL)	21%	1.8	102 mL/min/kg	–	half-life [1]: 0.5 h; CL free [2]: 102 mL/min/kg; Vd [3]: 2.5 L/kg; CL free [19]: 30 mL/min/kg; CL free [20]: 41.7 mL/min/kg; EC50 [6]: > 20000 nM; CL free [21]: 107 mL/min/kg; AUC(0-inf) [22]: 300 ng·h/mL; CL free [23]: 78.3 mL/min/kg; half-life [24]: 1.4 h; half-life [25]: 3 h; bioavailability [10]: 16%; bioavailability [26]: 71%; EC50 [12]: > 20000 nM
CC(=O)Nc1cc2c(-c3cccc(S(=O)(=O)C4COC4)n3)cn(C)c2cn1	–	194 nM	14000 nM	–	–	–	–	35 nM	–
CO[C@@]1(c2cc(C#N)cc(-c3cn([C@@H]4CC4(F)F)c4cnc(NC(C)=O)cc34)n2)CCOC1	40%	–	–	–	20%	13	68.3 mL/min/kg	–	–
CO[C@@]1(c2cccc(-c3cn(C)c4cnc(NC(N)=O)cc34)n2)CCOC1	–	60 nM	–	16 µM (≈ 5.88 µg/mL)	–	–	41.7 mL/min/kg	5 nM	–
CO[C@@]1(c2cc(C(F)F)cc(-c3cn(C)c4cnc(NC(C)=O)cc34)n2)CCOC1	23%	40 nM	–	–	49%	7.7	31.7 mL/min/kg	–	–
CC(=O)Nc1cc2c(-c3cccc(S(=O)(=O)N(C)C)n3)cn(C)c2cn1	–	24 nM	3400 nM	2.4 µM (≈ 0.896 µg/mL)	–	–	132 mL/min/kg	4 nM	–
CO[C@@]1(c2cccc(-c3cn(C)c4cnc(NC(C)=O)cc34)n2)CCOC1	–	–	–	20 µM (≈ 7.33 µg/mL)	–	–	80 mL/min/kg	30 nM	–
CO[C@@]1(c2cc(OCC#N)cc(-c3cn(C)c4cnc(NC(C)=O)cc34)n2)CCOC1	–	–	–	–	–	–	33 mL/min/kg	–	–
CC(=O)Nc1cc2c(-c3cccc(S(=O)(=O)N(C)C)c3)cn(C)c2cn1	–	20 nM	6800 nM	3.2 µM (≈ 1.19 µg/mL)	–	–	140 mL/min/kg	10 nM	–
